The values below come from patent US9353082B2, “Pharmaceutical compounds” (BIAL—PORTELA & CA, S.A., priority 2008, dated 2016).

One assay relates to carboxylesterase (CE). Put plainly: Carboxylesterase (CE) activity in mouse liver microsomes (LVms), p-nitrophenyl acetate. Format: biochemical. The note with it: 10 uM compound, read 10 min after substrate, remaining CE activity. Here is the method: FAAH inhibition was determined as described above. Inhibition of monoacylglycerol lipase (MAGL) and carboxylesterase (CE) was performed according to the protocols described below. The controls for both in vitro and in vivo were the reaction mix minus the test compounds. Therefore, a low value in Table 2 below for the test compounds indicates a strong inhibitor.
CE activity measurement is based on the formation of p-nitrophenol from p-nitrophenyl acetate. Briefly, in 96-well plates 8 μg/ml of rat or mouse liver microsomes (LVms) were incubated with 10 μM FAAH inhibitors for 15 min and then the substrate, p-nitrophenyl acetate, was added to a final concentration of 1 mM. The plate was read at 405 nm 10 min after substrate addition for the appearance of p-nitrophenol using a spectrophotometer. The carboxylesterase activity in microsome extracts without inhibitor added were set at 100% as control and the remaining CE activities after incubation with inhibitors were calculated relative to the control.
A general note: Liver microsomes are a subcellular fraction often used to study metabolism.

The target in another assay is T1, FAAH (Rattus norvegicus, UniProt P97612).
T1 construct: Frozen brains (without cerebellum) from Wistar rats were used; from tissue; host or cells: Wistar rat brain (without cerebellum), washed membrane pellets
T1 sequence (P97612 1-579): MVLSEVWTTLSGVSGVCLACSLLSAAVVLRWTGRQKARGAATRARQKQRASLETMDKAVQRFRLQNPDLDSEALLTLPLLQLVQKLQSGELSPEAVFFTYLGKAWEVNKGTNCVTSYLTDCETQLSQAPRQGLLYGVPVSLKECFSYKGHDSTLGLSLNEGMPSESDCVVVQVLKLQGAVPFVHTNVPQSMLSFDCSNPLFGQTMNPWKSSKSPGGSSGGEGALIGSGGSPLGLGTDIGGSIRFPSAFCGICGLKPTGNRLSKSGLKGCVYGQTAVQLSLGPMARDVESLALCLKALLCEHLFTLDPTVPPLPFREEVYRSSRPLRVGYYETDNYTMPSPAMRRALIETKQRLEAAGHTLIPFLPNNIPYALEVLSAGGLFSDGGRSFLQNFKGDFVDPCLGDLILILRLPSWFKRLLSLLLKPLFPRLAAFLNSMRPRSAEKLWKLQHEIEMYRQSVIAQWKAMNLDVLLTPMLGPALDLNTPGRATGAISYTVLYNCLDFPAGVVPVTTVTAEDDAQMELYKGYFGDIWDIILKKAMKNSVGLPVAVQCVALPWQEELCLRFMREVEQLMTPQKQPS
The experiment in a line: In vitro FAAH activity in rat brain membranes, 3H-AEA substrate, % of control. Format: biochemical, Wistar rats. The note with it: low value = strong inhibitor. The gist of the method: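 FAAH activity measured as 3H-ethanolamine released from 2 μM [3H]AEA over 10 min by rat brain membrane preparation, after 15 min 37 °C preincubation with test compound at 10 or 0.1 μM. Charcoal-separated supernatant scintillation-counted; values expressed as % of control minus no-protein blank.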

`COc1cccc(-c2cn(C(=O)N3CCCc4ccccc43)cn2)c1` [Compound 39, (3,4-dihydroquinolin-1(2H)-yl)(4-(3-methoxyphenyl)-1H-imidazol-1-yl)methanone]: the “CE Mou LVms 10 uM 10 min” value with carboxylesterase (CE) is 84.3 % of control. Moreover, at FAAH (10 uM compound, rat brain membranes, 100 = no measurable inhibition), the “FAAH 10 uM” value is 16 % of control. The “In Vitro FAAH activity, 10 uM” value on FAAH (10 uM test compound) is given as 16 % of control.
